Experimental data: patent US6020363A, “Isocoumarin derivatives and use thereof in drugs” (Mercian Corporation, priority 1998, dated 2000)

Tests used:
[1] = system: collagen-induced arthritis; experiment: Inhibitory Effect on Collagen-Induced Arthritis (No. 1), sole thickness; type: in vivo, DBA/1J mice; settings: intraperitoneal, mean ± SD, *p < 0.05 vs control (8.02 ± 0.82)
Experimental: (§1) The preventive effect on the onset of collagen-induced arthritis was tested by using DBA/1J mice in groups of 5-8. Specifically, type II collagen was mixed with an equal volume of Freund's complete adjuvant and emulsified to prepare a 1 mg/ml emulsion. Mice were sensitized by administering 0.1 ml of this emulsion intracutaneously to the root of the tail. After 21 days, the mice were additionally immunized by emulsifying type II collagen in the same manner as before and administering 0.1 ml of the emulsion intraperitoneally so as to induce arthritis.
Starting from the day of the first sensitization with type II collagen, Compound 1 was orally administered, once a day, for 43 days in a dose of 10 or 30 mg/kg body weight. Similarly, each of Compounds 2 and 3 was intraperitoneally administered, once a day, for 43 days in a dose of 1 or 10 mg/kg body weight. Their inhibitory effect on collagen-induced arthritis was evaluated by measuring the sole thicknesses of the hind legs periodically with digital vernier calipers.

[2] = system: collagen-induced arthritis; experiment: Inhibitory Effect on Collagen-Induced Arthritis (No. 2), arthritis score; type: in vivo, DBA/1J mice; settings: oral, mean ± SE, maximum 16
Experimental: as §1
Animals having arthritis induced in the same manner as described above were used in groups of 7-8. Compound 3 was orally administered, once a day, for 21 days following the additional immunization in a dose of 1, 3 or 10 mg/kg body weight. For comparative purposes, MI43 was similarly administered to another group in a dose of 30 mg/kg body weight. According to the degree of rubor, swelling and rigidity in each of the forelegs and hind legs of the experimental animals, their inhibitory effect on collagen-induced arthritis was evaluated on the following basis by a score ranging from 0 to 4 (with a maximum value of 16).
0: No symptom is observed.
2: Two or more small joints, or a relatively large joint such as that of the wrist or ankle, show rubor or swelling.
4: The total swelling of the hand or foot reaches its peak and, moreover, is accompanied by joint rigidity.

[3] = system: neogenesis of tumor vessels induced by the transplanted mouse tumor S180; experiment: Inhibitory Effect on Vascularization Using the Mouse Back Subcutaneous Transplantation Method; type: in vivo, male ICR mouse; settings: for Vascularization score: 5 days, mean ± SE, control 2.93 ± 0.07
Experimental: The inhibitory effect of Compounds 1 and 3 in accordance with the present invention on the neogenesis of tumor vessels induced by the transplanted mouse tumor S180 was tested using the mouse back subcutaneous transplantation method. Specifically, 1×10^7 S180 cells were injected into a chamber formed by attaching a Millipore filter having a pore size of 0.45 μm to either side of a Millipore ring. After the injection hole was stopped up, this chamber was transplanted into an air sac formed beneath the skin of the back of a male ICR mouse (9-10 weeks old). Starting from the day of transplantation, a test compound or a solvent control comprising a 0.5% carboxymethylcellulose solution was orally administered for 5 days. After the skin was separated on the fifth day of transplantation, an O-ring of 10 mm internal diameter having the same shape as the Millipore ring was placed on the part of the skin which had been in contact with the chamber, observed under a stereoscopic microscope, and photographed.
In the photographs so taken, the degree of vascularization was rated 0, 1, 2 or 3 according to the number of 3 mm or longer tortuous blood vessels characteristic of tumoral vessels, and scored on the following basis.
0: No tumoral vessel was observed.
1: One tumoral vessel was observed.
2: Two tumoral vessels were observed.
3: Three or more tumoral vessels were observed.

[4] = Levels of Orally Administered Test Compounds in Blood Plasma; type: in vivo, male ICR mice; settings: oral 25 mg/kg
Experimental: Each of Compound 3 and MI43 was orally administered to fasted male ICR mice (weighing 18-21 g) in a dose of 25 mg/kg. Blood samples were collected from the mice 5 minutes, 30 minutes, 4 hours, 8 hours and 24 hours after administration (3 mice per point for Compound 3 and 5 mice per point for MI43). These blood samples were centrifuged to obtain blood plasma samples. Each of the blood plasma samples was subjected to the following pretreatment and then analyzed by high-performance liquid chromatography (HPLC). 1.8 ml of a saturated aqueous solution of ammonium sulfate and 1.0 ml of methanol were added to and mixed with 0.2 ml of the blood plasma sample. This mixture was shaken with 3.5 ml of ethyl acetate. After this mixture was centrifuged, the ethyl acetate layer was separated. Moreover, the aqueous layer was shaken with 3.5 ml of ethyl acetate, followed by centrifugation. The ethyl acetate layer thus obtained was combined with the previously separated ethyl acetate layer, and this mixture was evaporated to dryness under reduced pressure. The resulting residue was redissolved in 0.2 ml of a 50% aqueous solution of acetonitrile and used as a sample for HPLC.
The analytical conditions for HPLC (using the CCTD system manufactured by Toso Co., Ltd.) were as follows: A YMC A-312 column (ODS 6×150 mm; manufactured by YMC Co., Ltd.) was used as the column. As the mobile phase, a 60:40 mixture of acetonitrile and 0.1% aqueous TFA was used for Compound 3, and a 40:60 mixture of acetonitrile and 0.1% aqueous TFA was used for MI43. The rest compound was eluted at a flow velocity of 1.0 ml/min and detected by UV light at 244 nm.

[5] = Acute toxicity in mice; type: in vivo, DBA/1J mice; settings: 100 mg/kg
Experimental: (§2) Among the compounds in accordance with the present invention, each of Compounds 1, 2 and 3 was orally or intraperitoneally administered to eight DBA/1J mice in a dose of 100 mg/kg body weight. […] This seems to indicate that the compounds used in the present invention have no or very little, if any, acute toxicity. Moreover, Compound 1, in a dose of 100 mg/kg body weight, or Compound 3, in a dose of 30 mg/kg body weight, was orally administered to eight mice of the aforesaid strain for 40 days. […] Thus, the compounds of the present invention have little subacute toxicity. Since other compounds in accordance with the present invention are estimated to have similar properties, the compounds of the present invention can be used very safely.

[6] = set-up: species or system DBA/1J mice; settings: mouse, in vivo, po, 30 mg/kg
Experimental: as §2

In the case of `COc1cc(O)c2c(=O)oc(C(C)C(=O)O)cc2c1` (stereo not shown) [Compound 3, 2-(8-hydroxy-6-methoxy-1-oxo-1H-2-benzopyran-3-yl)propionic Acid], the “Sole thickness (sum of left and right, mm), after 37 days” value ([1]; 1 mg/kg/day) is reported as 7.08 ± 0.16 mm, the “Sole thickness (sum of left and right, mm), after 37 days” value ([1]; 10 mg/kg/day) is reported as 6.78 ± 0.98 mm and the “Score after 37 days” value ([2]; 1 mg/kg/day, control 9.25 ± 1.35) is reported as 6.50 ± 1.49. For the same compound, the “Score after 37 days” value ([2]; 3 mg/kg/day, control 9.25 ± 1.35) was 5.00 ± 1.61, the “Score after 37 days” value ([2]; 10 mg/kg/day, **p < 0.01 vs control (9.25 ± 1.35)) was 3.50 ± 0.63 and the Vascularization score ([3]; oral 0.3 mg/kg, n = 10) was 2.40 ± 0.4. It also gave a Vascularization score ([3]; oral 1.0 mg/kg, n = 11) of 1.55 ± 0.43, a Vascularization score ([3]; oral 3 mg/kg, n = 14) of 0.86 ± 0.33 and a Vascularization score ([3]; oral 10 mg/kg, n = 14) of 0.86 ± 0.38. For the same compound, the “inhibition of vascularization induced by tumor cell S180 (in words)” value ([3]; oral, 1-10 mg/kg body weight) was “significantly inhibited vascularization”, the concentration at 5 min ([4]; mouse, plasma, 5 min, read-out: Concentration of unchanged Compound 3 in blood plasma, mean) was 123 µg/mL and the concentration at 0.5 h ([4]; mouse, plasma, 30 min, read-out: Concentration of unchanged Compound 3 in blood plasma, mean) was 131 µg/mL. For the same compound, the concentration at 4 h ([4]; mouse, plasma, 4 hr, read-out: Concentration of unchanged Compound 3 in blood plasma, mean) was 63 µg/mL, the concentration at 8 h ([4]; mouse, plasma, 8 hr, read-out: Concentration of unchanged Compound 3 in blood plasma, mean) was 38400 ng/mL and the concentration at 24 h ([4]; mouse, plasma, 24 hr, read-out: Concentration of unchanged Compound 3 in blood plasma, mean) was 190 ng/mL. The Tmax ([4]; mouse, plasma, unchanged compound, read-out: time of peak / highest plasma level after administration (converted)) was 30 min, the “plasma concentration after 8 hours (in words)” value ([4]; 8 hr) was “remained high even after 8 hours” and the “plasma concentration after 24 hours (in words)” value ([4]; 24 hr) was “dropped to a vary low level after 24 hours”. The “evidence of toxicity, single administration” value ([5]; mouse, in vivo) was “no animal showed evidences of toxicity”, the “mortality, single administration” value ([5]; oral or intraperitoneal, eight DBA/1J mice) was “No animal died” and the “evidence of toxicity, 40 days” value [6] was “no animal showed evidences of toxicity”. The “mortality, 40 days” value [6] was “No animal died”.
